Experimental data taken from the NIST ThermoML archive (doi:10.1021/je0499768).

Test: molar heat capacity at saturation pressure

CCCCCO [pentan-1-ol]
Details | molar heat capacity [J/K/mol]
84.35 K, Crystal | 65.89
85.06 K, Crystal | 66.25
86.86 K, Crystal | 67.27
89.74 K, Crystal | 68.87
92.58 K, Crystal | 70.39
94.72 K, Crystal | 71.43
95.39 K, Crystal | 71.74
95.42 K, Crystal | 71.88
97.19 K, Crystal | 72.64
98.27 K, Crystal | 73.33
100.1 K, Crystal | 74.14
101.12 K, Crystal | 74.67
102.99 K, Crystal | 75.73
103.99 K, Crystal | 76.36
105.87 K, Crystal | 77.16
106.86 K, Crystal | 77.84
108.76 K, Crystal | 78.64
109.74 K, Crystal | 79.23
111.65 K, Crystal | 79.96
112.62 K, Crystal | 80.53
114.54 K, Crystal | 81.27
115.51 K, Crystal | 81.81
117.45 K, Crystal | 82.55
118.41 K, Crystal | 83.11
120.35 K, Crystal | 83.59
121.31 K, Crystal | 84.26
123.26 K, Crystal | 85.21
124.22 K, Crystal | 85.78
126.17 K, Crystal | 86.52
127.13 K, Crystal | 87.05
129.09 K, Crystal | 87.81
130.04 K, Crystal | 88.35
132 K, Crystal | 89.11
132.96 K, Crystal | 89.63
134.92 K, Crystal | 90.35
135.88 K, Crystal | 90.9
137.85 K, Crystal | 91.65
138.8 K, Crystal | 92.19
140.77 K, Crystal | 92.89
141.73 K, Crystal | 93.48
143.7 K, Crystal | 94.19
144.65 K, Crystal | 94.77
146.63 K, Crystal | 95.55
147.58 K, Crystal | 96.12
149.56 K, Crystal | 96.87
150.51 K, Crystal | 97.45
152.49 K, Crystal | 98.21
153.44 K, Crystal | 98.8
155.42 K, Crystal | 99.58
156.38 K, Crystal | 100.2
158.36 K, Crystal | 101.02
159.31 K, Crystal | 101.61
161.29 K, Crystal | 102.48
162.24 K, Crystal | 103.05
164.23 K, Crystal | 103.98
165.18 K, Crystal | 104.56
167.16 K, Crystal | 105.55
168.11 K, Crystal | 106.11
170.08 K, Crystal | 107.17
171.04 K, Crystal | 107.72
173.01 K, Crystal | 108.87
173.97 K, Crystal | 109.43
175.94 K, Crystal | 110.7
176.89 K, Crystal | 111.3
178.85 K, Crystal | 112.7
179.8 K, Crystal | 113.33
181.73 K, Crystal | 115.01
182.67 K, Crystal | 115.64
184.57 K, Crystal | 118.07
185.5 K, Crystal | 118.77
187.36 K, Crystal | 123.84
188.28 K, Crystal | 124.56
198.65 K, Liquid | 163.65
199.38 K, Liquid | 163.9
200.99 K, Liquid | 163.99
201.72 K, Liquid | 164.4
203.32 K, Liquid | 164.43
204.05 K, Liquid | 164.85
205.65 K, Liquid | 164.91
206.37 K, Liquid | 165.31
207.96 K, Liquid | 165.4
208.68 K, Liquid | 165.79
210.27 K, Liquid | 165.93
210.99 K, Liquid | 166.35
212.58 K, Liquid | 166.46
213.29 K, Liquid | 166.86
214.87 K, Liquid | 167.08
215.58 K, Liquid | 167.46
217.16 K, Liquid | 167.65
217.86 K, Liquid | 168.06
219.44 K, Liquid | 168.24
220.14 K, Liquid | 168.68
221.71 K, Liquid | 168.88
222.41 K, Liquid | 169.28
223.98 K, Liquid | 169.49
224.67 K, Liquid | 169.98
226.24 K, Liquid | 170.19
226.92 K, Liquid | 170.74
228.49 K, Liquid | 170.97
229.17 K, Liquid | 171.45
230.73 K, Liquid | 171.69
231.4 K, Liquid | 172.08
232.96 K, Liquid | 172.37
233.63 K, Liquid | 172.91
235.19 K, Liquid | 173.18
235.85 K, Liquid | 173.67
237.41 K, Liquid | 174
238.06 K, Liquid | 174.45
239.61 K, Liquid | 174.8
240.27 K, Liquid | 175.24
241.81 K, Liquid | 175.57
242.46 K, Liquid | 176.08
244 K, Liquid | 176.53
244.65 K, Liquid | 177.02
246.19 K, Liquid | 177.41
246.83 K, Liquid | 177.9
248.36 K, Liquid | 178.37
249 K, Liquid | 178.81
250.53 K, Liquid | 179.33
251.16 K, Liquid | 179.81
252.69 K, Liquid | 180.35
253.31 K, Liquid | 180.73
254.84 K, Liquid | 180.78
255.46 K, Liquid | 181.29
256.98 K, Liquid | 181.89
257.6 K, Liquid | 182.33
259.12 K, Liquid | 182.97
259.72 K, Liquid | 183.42
261.25 K, Liquid | 184.11
261.84 K, Liquid | 184.56
